In US6169181A, “Compounds useful to treat retroviral infections” (Pharmacia & Upjohn Company, priority 1998, dated 2001):
“And” between values parts separate entries of the source, which are not always exact repeats. Equal values may be shown once. Read-outs that look alike come from different tables or passages of the source.

What was measured:
HIV-1 protease [1] = biological target: T1, HIV-1 protease (Human immunodeficiency virus type 1 group M subtype B, UniProt P04585); experiment: biochemical; conditions: Table I; for inhibition at 0.123 µM / inhibition at 0.37 µM / inhibition at 1.1 µM / inhibition at 3.3 µM / inhibition at 10 µM / inhibition at 30 µM: read-out: Protease % Inhib
Method: (§1) The HIV protease screening assay is based on fluorescently labeled substrate which can be resolved from nonlabeled cleavage product using special beads coated with streptavidin. The substrate is biotinylated at the amino terminal arginine and fluorescently labeled with fluorescein isothiocynate (FITC) at the carboxyl terminal lysine. This assay has been employed to detect novel, nonpeptidic inhibitors of HIV-1 protease. Substrate (20 μM of 0.2 μM), sample (10 μl of desired concentraion), and enzyme (10 μl of 0.1 μM) are added to a 96 well pandex plate. The assay is run in 0.1 M sodium acetate buffer at pH 5.5 in the presence of 1.0 M sodium chloride and 0.05% NP-40 with incubated in the dark for one hour at room temperature. Strepavidin coated polystyrene beads {40 μl of 0.1% (w/v)} are added and the plate is incubated in the dark for an additional half hour. The labeled cleavage product is separated from the unreacted substrate via filtration and is read on the Idexx screen machine. The data are analyzed by appropriate computer algorithms to ascertain percent inhibition values.

HIV-1 protease [2] = biological target: T1, HIV-1 protease; experiment: biochemical
Method: as §1, with “This assay has been employed to detect novel, nonpeptidic inhibitors of HIV-1 protease.” left out
Determination of Ki values utilizes the same materials and equipment employed for percent inhibition studies. Two-fold serial dilutions are made for a given inhibitor from 2, 3 or 4 starting concentrations with a total of 24, 36 or 48 individual inhibitor concentrations. These dilutions are performed utilizing the BioMek robotics system. The assay consists of 10 μL of 40 nM HIV-1 protease, 10 μL of the various inhibitor concentrations, and 20 μL of 200 μM substrate (40 μL total). The reaction is allowed to proceed for 90 min at room temperature, terminated with 40 μL of avidin beads and processed (supra vide). An inhibitor with a known K; is run in parallel to verify the validity of the assay. The data is processed utilizing a computer program employing a nonlinear least square analysis of the data to generate the Ki values.

[3] = Table I, read-out: HIV Protease FITC Assay Ki
[4] = read-out: HIV Protease FITC Assay Ki

Compound: 4-Pyridylsulfonamide, N-[4-[cyclopropyl(5,6,7,8,9,10-hexahydro-4-hydroxy-2-oxo-2H-cycloocta[b]pyran-3-yl)methyl]phenyl]- [Example 240]
- PROTEASE % INHIB. (HIV-1 protease [1]; Dose 0.123 μM): 96.32%
- PROTEASE % INHIB. (HIV-1 protease [1]; Dose 0.370 μM): 100.98%
- PROTEASE % INHIB. (HIV-1 protease [1]; Dose 1.100 μM): 102.71%
- PROTEASE % INHIB. (HIV-1 protease [1]; Dose 3.300 μM): 101.88%
- PROTEASE % INHIB. (HIV-1 protease [1]; Dose 10.900 μM): 104.28%
- PROTEASE % INHIB. (HIV-1 protease [1]; Dose 30.000 μM): 107.17%
- Ki (HIV-1 protease [2]; [3]): 1.3 nM

Compound: CC(C)CC(c1cccc(NS(=O)(=O)c2cn(C)cn2)c1)c1c(O)c2c(oc1=O)CCCCCC2 (single isomer, unassigned) [Example 8, (R or S)-N-[3-1-(5,6,7,8,9,10-Hexahydro-4-hydroxy-2-oxo-2H-cycloocta[b]pyran-3-yl)-3-methylbutyl]phenyl]-1-methyl-1H-imidazole-4-sulfonamide]
- inhibition at 0.123 µM (HIV-1 protease [1]; Dose 0.123 μM): 99.2%
- inhibition at 0.37 µM (HIV-1 protease [1]; Dose 0.370 μM): 110%
- inhibition at 1.1 µM (HIV-1 protease [1]; Dose 1.100 μM): 103%
- inhibition at 3.3 µM (HIV-1 protease [1]; Dose 3.300 μM): 110%
- inhibition at 10 µM (HIV-1 protease [1]): 105%
- inhibition at 30 µM (HIV-1 protease [1]; Dose 30.000 μM): 102%
- Ki (HIV-1 protease [2]; [3]): 0.35 nM

Compound: CC(C)CC(c1cccc(NS(=O)(=O)c2cn(C)cn2)c1)c1c(O)c2c(oc1=O)CCCCCC2 (single isomer, unassigned) [Example 9, (R or S)-N-[3-1-(5,6,7,8,9,10-Hexahydro-4-hydroxy-2-oxo-2H-cycloocta[b]pyran-3-yl)-3-methylbutyl]phenyl]-1-methyl-1H-imidazole-4-sulfonamide]
- inhibition at 0.123 µM (HIV-1 protease [1]; Dose 0.123 μM): 99.1%
- inhibition at 0.37 µM (HIV-1 protease [1]; Dose 0.370 μM): 104%
- inhibition at 1.1 µM (HIV-1 protease [1]; Dose 1.100 μM): 105%
- inhibition at 3.3 µM (HIV-1 protease [1]; Dose 3.300 μM): 105%
- inhibition at 10 µM (HIV-1 protease [1]): 107%
- inhibition at 30 µM (HIV-1 protease [1]; Dose 30.000 μM): 108%
- Ki (HIV-1 protease [2]; [3]): 0.42 nM

Compound: CCCC1(CCC)CC(O)=C(C(CC)c2cccc(NS(=O)(=O)c3cccc4cccnc34)c2)C(=O)O1 (single isomer, unassigned) [Example 52, (R or S)-N-[3-[1-(4-Hydroxy-2-oxo-6,6-dipropyl-5,6-dihydro-2H-pyran-3-yl)-propyl]-phenyl]-8-quinolinesulfonamide]
- PROTEASE % INHIB. (HIV-1 protease [1]; Dose 0.123 μM): 85.08%
- inhibition at 0.37 µM (HIV-1 protease [1]; Dose 0.370 μM): 87.3%
- inhibition at 1.1 µM (HIV-1 protease [1]; Dose 1.100 μM): 92.6%
- inhibition at 3.3 µM (HIV-1 protease [1]; Dose 3.300 μM): 97.4%
- inhibition at 10 µM (HIV-1 protease [1]): 97.2%
- inhibition at 30 µM (HIV-1 protease [1]; Dose 30.000 μM): 88.9%
- Ki (HIV-1 protease [2]; [3]): 1.4 nM

Compound: CCCC1(CCC)CC(O)=C(C(CC)c2cccc(NS(=O)(=O)c3cn(C)cn3)c2)C(=O)O1 (single isomer, unassigned) [Example 53, (R or S)-N-[3-[1-(4-hydroxy-2-oxo-6,6-dipropyl-5,6-dihydro-2H-pyran-3-yl)-propyl]-phenyl]-1-methyl-1H-imidazole-4-sulfonamide]
- PROTEASE % INHIB. (HIV-1 protease [1]; Dose 0.123 μM): 88.61%
- PROTEASE % INHIB. (HIV-1 protease [1]; Dose 0.370 μM): 97.74%
- PROTEASE % INHIB. (HIV-1 protease [1]; Dose 1.100 μM): 97.95%
- inhibition at 3.3 µM (HIV-1 protease [1]; Dose 3.300 μM): 99.6%
- inhibition at 10 µM (HIV-1 protease [1]): 90.2%
- inhibition at 30 µM (HIV-1 protease [1]; Dose 30.000 μM): 84.4%
- Ki (HIV-1 protease [2]; [3]): 0.9 nM

Compound: Cn1cnc(S(=O)(=O)Nc2cccc(C(c3c(O)cc(C(CC4CC4)CC4CC4)oc3=O)C3CC3)c2)c1 (stereo not shown) [98 Second Compound]
- Ki (HIV-1 protease [2]; [4]): 0.84 nM and 0.8 nM

Compound: CCC(C1=C(O)CC(CCC2CC2)(CCC2CC2)OC1=O)c1cccc(NS(=O)(=O)c2cn(C)cn2)c1 (stereo not shown) [Example 246, N-[3-(1-[6,6-Bis-(2-cyclopropyl-ethyl)-5,6-dihydro-4-hydroxy-2-oxo-2H-pyran-3-yl]propyl)phenyl]-1-methyl-1H-imidazole-4-sulfonamide]
- Ki (HIV-1 protease [2]; [3]): 1.7 nM

Compound: CCC(C1=C(O)CC(CCC2CC2)(CCC2CC2)OC1=O)c1cccc(NS(=O)(=O)c2ccc(C#N)cn2)c1 (stereo not shown) [Example 247, N-[3-(1-[6,6-Bis-(2-cyclopropyl-ethyl)-5,6-dihydro-4-hydroxy-2-oxo-2H-pyran-3-yl]propyl)phenyl]-5-cyano-2-pyridinesulfonamide]
- Ki (HIV-1 protease [2]; [3]): 1.2 nM

Compound: CCC(C1=C(O)CC(CC)(c2cccc(NS(=O)(=O)c3cn(C)cn3)c2)OC1=O)c1cccc(NS(=O)(=O)c2cn(C)cn2)c1 (stereo not shown) [Example 248, N-(3-[1-(6-Ethyl-5,6-dihydro-4-hydroxy-6-[3-([(1-methyl-1H-imidazol-4-yl)sulfonyl]amino)phenyl]-2-2H-pyran-3-yl)propyl]phenyl)-1-methyl-1H-imidazole-4-sulfonamide]
- Ki (HIV-1 protease [2]; [3]): 4.7 nM

Compound: CCC(C1=C(O)CC(CC)(c2cccc(NS(=O)(=O)c3ccc(C#N)cn3)c2)OC1=O)c1cccc(NS(=O)(=O)c2ccc(C#N)cn2)c1 (stereo not shown) [Example 249, 5-Cyano-N-(3-[1-(6-[3-([(5-cyano-2-pyridinyl)sulfonyl]amino)phenyl]-6-ethyl-5,6-dihydro-4-hydroxy-2-oxo-2H-pyran-3-yl)propyl]phenyl)-2-pyridinesulfonamide]
- Ki (HIV-1 protease [2]; [4]): 0.75 nM

Compound: CCCC1(CCc2ccc(F)cc2)CC(O)=C(C(CC)c2cccc(NS(=O)(=O)c3cn(C)cn3)c2)C(=O)O1 (stereo not shown) [Example 254, N-[3-{1-(4-Hydroxy-5,6-dihydro-2-oxo-6-(2-(4-fluorophenyl)ethyl)-6-propyl-2H-pyran-3-yl)propyl}phenyl]-1-methyl-1H-imidazole-4-sulfonamide]
- Ki (HIV-1 protease [2]; [4]): 3 nM

Compound: CCCC1(CCc2ccc(F)cc2)CC(O)=C(C(CC)c2cccc(NS(=O)(=O)c3ccc(C#N)cn3)c2)C(=O)O1 (stereo not shown) [Example 255, N-[3-{1-(4-Hydroxy-5,6-dihydro-2-oxo-6-(2-(4-fluorophenyl)ethyl)-6-propyl-2H-pyran-3-yl)propyl}phenyl]-5-cyanopyridine-2-sulfonamide]
- Ki (HIV-1 protease [2]; [3]): 1.6 nM

Compound: Cn1cnc(S(=O)(=O)Nc2cccc(C(C3=C(O)CC(CCc4ccc(F)cc4)(CCc4ccc(F)cc4)OC3=O)C(C)(C)C)c2)c1 (stereo not shown) [Example 256, N-[3-{1-(4-Hydroxy-5,6-dihydro-2-oxo-6,6-bis(2-(4-fluorophenyl)ethyl)-2H-pyran-3-yl)-2,2-dimethylpropyl}phenyl]-1-methyl-1H-imidazole-4-sulfonamide]
- Ki (HIV-1 protease [2]; [3]): 8.3 nM

Compound: CC(C)(C)C(C1=C(O)CC(CCc2ccc(F)cc2)(CCc2ccc(F)cc2)OC1=O)c1cccc(NS(=O)(=O)c2ccc(C#N)cn2)c1 (stereo not shown) [Example 257, N-[3-{1-(4-Hydroxy-5,6-dihydro-2-oxo-6,6-bis(2-(4-fluorophenyl)ethyl)-2H-pyran-3-yl)-2,2-dimethylpropyl}phenyl]-5-cyanopyridine-2-sulfonamide]
- Ki (HIV-1 protease [2]; [3]): 9 nM

Compound: CCC(C1=C(O)CC(CCc2ccc(F)cc2)(CCc2ccc(F)cc2)OC1=O)c1cccc(NS(=O)(=O)c2cn(C)cn2)c1 (stereo not shown) [Example 258, N-[3-{1-(4-Hydroxy-5,6-dihydro-2-oxo-6,6-bis(2-(4-fluorophenyl)ethyl)-2H-pyran-3-yl)propyl}phenyl]-1-methyl-1H-imidazole-4-sulfonamide]
- Ki (HIV-1 protease [2]; [3]): 4.3 nM

Compound: CCC(C1=C(O)CC(CCc2ccc(F)cc2)(CCc2ccc(F)cc2)OC1=O)c1cccc(NS(=O)(=O)c2ccc(C#N)cn2)c1 (stereo not shown) [Example 259, N-[3-{1-(4-Hydroxy-5,6-dihydro-2-oxo-6,6-bis(2-(4-fluorophenyl)ethyl)-2H-pyran-3-yl)propyl}phenyl]-5-cyanopyridine-2-sulfonamide]
- Ki (HIV-1 protease [2]; [3]): 2.2 nM

Compound: CCCC1(CCC)CC(O)=C(C(c2cccc(NS(=O)(=O)c3ccc(C#N)cn3)c2)C(C)(C)C)C(=O)O1 (stereo not shown) [Example 260, N-[3-{1-(4-Hydroxy-5,6-dihydro-2-oxo-6,6-dipropyl-2H-pyran-3-yl)-2,2-dimethylpropyl}phenyl]-5-cyanopyridine-2-sulfonamide]
- Ki (HIV-1 protease [2]; [3]): 2 nM

Compound: CCCC1(CCC)CC(O)=C(C(c2cccc(NS(=O)(=O)c3cn(C)cn3)c2)C(C)(C)C)C(=O)O1 (stereo not shown) [Example 261, N-[3-{1-(4-Hydroxy-5,6-dihydro-2-oxo-6,6-dipropyl-2H-pyran-3-yl)-2,2-dimethylpropyl}phenyl]-1-methyl-1H-imidazole-4-sulfonamide]
- Ki (HIV-1 protease [2]; [3]): 0.87 nM

Compound: CCC(C1=C(O)C2CCCCC2OC1=O)c1cccc(NS(=O)(=O)c2ccc(C#N)cc2)c1 (stereo not shown) [Example 371]
- Ki (HIV-1 protease [2]; read-out: FITC KI): 15.4 nM
